What was measured:
Hd 1NES1NiR = biological target: T1, Hd 1NES1NiR (Hyphomicrobium denitrificans, UniProt N0B9M5); assay: X-ray crystal structure (nitrite-soaked crystal); format: binding; details: 100 mM NaNO2 soak, pH 5.3; catalytic T2Cu site, side-on, two of three monomers; third monomer holds NO
T1 construct: gene HYPDE_25578; N-terminal cupredoxin-tethered three-domain CuNiR; predicted signal peptide removed; 6xHis-tag cut with TEV; E. coli BL21(DE3), pET-26b(+); Cu-loaded; hexamer (dimer of trimers)
T1 sequence (N0B9M5 38-486): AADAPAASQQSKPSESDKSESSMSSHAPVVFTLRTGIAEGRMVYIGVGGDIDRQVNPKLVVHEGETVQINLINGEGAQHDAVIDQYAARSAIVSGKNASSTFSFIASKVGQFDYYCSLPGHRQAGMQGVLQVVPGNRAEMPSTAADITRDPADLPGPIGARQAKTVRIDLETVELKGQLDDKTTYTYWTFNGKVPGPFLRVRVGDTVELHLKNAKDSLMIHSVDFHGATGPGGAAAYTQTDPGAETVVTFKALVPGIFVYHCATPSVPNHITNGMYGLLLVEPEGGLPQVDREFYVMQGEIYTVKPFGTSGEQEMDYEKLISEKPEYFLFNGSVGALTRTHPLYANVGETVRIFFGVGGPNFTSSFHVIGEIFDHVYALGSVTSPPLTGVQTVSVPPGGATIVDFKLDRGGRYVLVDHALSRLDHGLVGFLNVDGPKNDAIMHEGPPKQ

[1] = biological target: N-terminal cupredoxin-tethered three-domain copper-containing nitrite reductase from Hyphomicrobium denitrificans strain 1NES1 (Hyphomicrobium denitrificans strain 1NES1); assay: SEC; HiLoad 16/600 Superdex 200 pg, 100 mM Tris-HCl pH 8.0, 500 mM NaCl, 10% (v/v) glycerol, 1.0 ml/min; mass estimated from a calibration curve of marker proteins

Q: Which “X-ray crystal structure (nitrite-soaked crystal)” value (Hd 1NES1NiR) does the source give for O=NO [NO2, nitrite] here?
A: Its value is “The NO2 ^− is bound to the T2Cu in a side-on conformation”.

Q: Which stoichiometry N [1] does the source give for “N-terminal cupredoxin-tethered three-domain copper-containing nitrite reductase from Hyphomicrobium denitrificans strain 1NES1 (enzyme)” here?
A: The stoichiometry N was 6.
